Data set [1] has as its system diffuse intrinsic pontine glioma. In words: CED of carboplatin in a patient with diffuse intrinsic pontine glioma. The text has this: MR imaging under general anaesthetic was undertaken to facilitate pre-operative stereotactic planning (field strength 3 T, Philips Achieva TX, Philips Healthcare, The Netherlands) one week prior to surgery. […] A left transfrontal trajectory for catheter implantation was planned (FIGS. 7a-d) facilitating the in-house manufacture of a bespoke catheter with a winged hub (FIG. 8a). The catheter was manufactured from polyether ether ketone (PEEK) with an outer diameter (OD) of 0.6 mm, which was bonded onto a fused silica cannula with a laser-cut tip (OD 0.23 mm). The catheter was designed to be implanted through a 1 mm OD carbothane guide-tube.
On the day of surgery the patient was anaesthetised and placed in a Leksell frame. A pre-operative CT angiogram was performed and co-registered with the post-contrast T1 weighted planning MRI scan to facilitate output of stereotactic co-ordinates to a Neuro|Mate® neurosurgical robot (Renishaw) (FIG. 8b). A 3 cm left frontal curvilinear scalp incision was made and the periosteum retracted. The robot was driven to the entry position on the skull, and using custom-made hand drills, a multi-featured burr hole made into which the guide tube hub would push fit. The dura was pierced and a 1 mm guide rod inserted to a point 24 mm proximal to the target within the tumour. The guide tube was then implanted on a 0.6 mm guide rod to maintain trajectory. The catheter was tunnelled out through a separate stab incision in the scalp and connected to a custom-made in-line gas and bacterial filter. The catheter was attached to an infusion pump (B Braun, Melsungen, Germany) and primed with artificial cerebrospinal fluid (Torbay Pharmaceutical Manufacturing Unit, Torbay, UK). The fused silica catheter was then implanted via the guide-tube with 3 mm of fused silica retained within the guide tube and 24 mm extending beyond the guide-tube tip, thus creating a “recessed-step” within the distal guide-tube (FIG. 8c). The winged hub of the catheter was turned 90° at the skull and secured with 5 mm titanium screws. […] The skin incision was closed in layers and the externalised catheter tubing secured in a loop on the scalp (FIG. 8d).
Whilst under general anaesthesia the child was transferred to the 3 T MRI scanner. The externalised catheter was attached to a 6 m extension line to allow infusions to be performed from a syringe driver (B Braun) outside of the scan room. Infusions of carboplatin diluted in artificial cerebrospinal fluid to a concentration of 0.09 mg/ml were commenced using the following infusion regime:
0.5 μl/min for 10 minutes, 1 μl/min for 5 minutes, 2.5 μl/min for 5 minutes, 5 μl/min for 5 minutes, 7.5 μl/min until completion.
Serial real-time T2-weighted MRI scans were performed in order to allow areas of hyperintense signal change to be used as a proxy measure for drug distribution. […] Once the Vi:Vd ratio was established the child was recovered from anaesthesia and monitored in a high dependency area until completion of the infusion. […] Infusions of carboplatin were performed on 3 consecutive days in order to maintain exposure to the cytotoxic chemotherapy for at least 72 hours.

Data set [2] in a line: Prolonged intracranial (brainstem) carboplatin infusions in primates (Strege et al.). The format is in vivo.
The subject of the next data set is synaptophysin. The data set can be described thus: Synaptophysin ELISA of rat brain homogenates after carboplatin infusion. In kind it is in vivo. The conditions noted are these: 72 hours after infusion. As to the method:
Brain tissue homogenates were prepared from dissected samples of unfixed frozen hemispheres from rats at 72 hours after infusion of either artificial CSF (control) or carboplatin at concentrations of 0.36 and 0.72 mg/ml. Tissue samples incorporating the overlying cerebral cortex (approximately 200 mg) were dissected and homogenised for 75 s using a Precellys 24 automated tissue homogeniser (Stretton Scientific) with 2.3 mm silica beads (Biospec) in 1% SDS, 10 mM tris base (pH 6.0), 0.1 mM sodium chloride, and the protease inhibitors aprotinin (1 μg/ml; Sigma) and PMSF (10 μM; Sigma). The resultant crude tissue homogenates were centrifuged at 13,000 rpm for 15 min at 4° C., and the supernatants aliquoted and stored at −80° C.
Ninety-six-well plates (Nunc Maxisorp) were coated with primary rabbit anti-synaptophysin polyclonal antibody (Abeam) at a concentration of 1 μg/ml, and incubated overnight at 4° C. After 5 washes with wash buffer, non-specific binding was blocked with the addition of 1% BSA/PBS for 2 hours. After 5 washes with wash buffer, serial dilutions of recombinant synaptophysin or the supernatant of crude homogenates were added to wells in triplicate, and incubated at room temperature for 2 hours. […] Plates were read in a microplate reader at 405 nm (BMG Labtech).
(In an ELISA, binding on a coated surface is turned into a signal by an enzyme label.)

The mark [3] stands for this setting: one month after completion of infusions.

Entries after “also recorded” stand apart in the source; their conditions may differ.

Consider `N.N.O=C([O-])C1(C(=O)[O-])CCC1.[Pt+2]` [carboplatin], for which the “volume of T2 signal change on completion of final infusion” value in data set [1] (after 5 infusions, 0.09 and 0.18 mg/ml) is 35.1 mL. Further, in data set [1] (after infusion of 0.52 ml, 0.09 mg/ml in artificial CSF), the “volume of distribution (T2-weighted MRI)” value worked out at 2.06 mL. The “follow-up T2-weighted MR imaging” value in data set [1] (setting [3]) was “suggestive of the early stages of tumour necrosis”. In addition, the “follow-up post-contrast T1-weighted imaging” value in data set [1] (setting [3]) was “tumour progression in the inferior and anterior regions of the tumour”. Besides, in data set [1] (patient, 0.09-0.18 mg/ml, up to 10 μl/min), the tolerability of infusions entry was “well tolerated; also recorded: transient worsening in neurological status”. The “lowest concentration likely to lead to significant toxicity” value in data set [2] (extrapolated from Strege et al, assuming patient weight of 70 kg) was 0.22 mg/mL. Besides, the “ratio of serum concentration, intravenous in humans vs intracranial in primates” value in data set [2] (in vivo, iv) was “more than 5 thousand”. Besides, the results for the “reduction in synaptophysin (indicative of toxicity)” value in the data set on synaptophysin (0.36 mg/ml) and in the data set with synaptophysin (0.72 mg/ml) were “not at 0.36 mg/ml” and “observed at 0.72 mg/ml”, respectively.

The values are drawn from patent US20160136284A1, “GLIOMA TREATMENT” (priority 2012, published 2016).
